Measurements taken from PMC6954722 (Stem Cells Translational Medicine, 2019).

Molecular target: Smoothened (Mus musculus, UniProt P56726)
Assay: displacement of BODIPY-cyclopamine
Assay type: cell-based

Smoothened, sequence (P56726 33-793): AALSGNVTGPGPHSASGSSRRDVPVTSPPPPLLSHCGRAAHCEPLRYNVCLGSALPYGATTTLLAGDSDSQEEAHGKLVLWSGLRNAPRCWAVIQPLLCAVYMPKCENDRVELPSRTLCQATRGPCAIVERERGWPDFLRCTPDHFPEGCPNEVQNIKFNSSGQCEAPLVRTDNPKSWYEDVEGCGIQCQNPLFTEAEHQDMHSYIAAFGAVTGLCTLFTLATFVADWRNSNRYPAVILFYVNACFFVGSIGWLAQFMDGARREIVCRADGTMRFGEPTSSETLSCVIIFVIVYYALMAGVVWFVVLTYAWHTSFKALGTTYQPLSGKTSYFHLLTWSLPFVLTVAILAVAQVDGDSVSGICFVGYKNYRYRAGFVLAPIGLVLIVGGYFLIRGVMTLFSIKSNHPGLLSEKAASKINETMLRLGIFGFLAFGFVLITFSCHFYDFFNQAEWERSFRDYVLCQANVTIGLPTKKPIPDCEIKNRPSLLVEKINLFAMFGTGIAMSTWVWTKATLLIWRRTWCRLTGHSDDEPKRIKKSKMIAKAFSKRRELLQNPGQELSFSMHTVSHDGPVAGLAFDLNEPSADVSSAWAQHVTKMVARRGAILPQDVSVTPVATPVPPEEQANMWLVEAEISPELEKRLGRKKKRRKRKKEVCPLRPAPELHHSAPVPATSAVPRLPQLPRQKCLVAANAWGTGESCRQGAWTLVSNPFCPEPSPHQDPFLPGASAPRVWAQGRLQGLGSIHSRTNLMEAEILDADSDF

O=[N+]([O-])c1ccc(S(=O)(=O)N2CCN(c3ccccc3)CC2)cc1 [compound #5, 1‐[(4‐nitrophenyl)sulfonyl]‐4‐phenylpiperazine]
IC50: 88 ± 3.7 µM
